In patent publication US7700581B2, “Cephalosporin compounds comprising a C3 thio-methyl moiety substituted with N-containing heterocyclic group, and a C7 thiourea acetamido group, their preparations and uses thereof” (Guangzhou Baiyunshan Pharmaceutical Co., Ltd., priority 2007, dated 2010):
In brackets after ≈: the same amount, converted by molar mass. Read-outs that look alike come from different tables or passages of the source.

How the values were obtained:
[1] = system: Staphylococcus epidermidis; experiment: In vitro antibacterial activity test (MIC); format: cell-based; conditions: read-out: minimum inhibitory concentration (MIC)
Experimental: (§1) In vitro antibacterial activity test of the cephalosporin compounds disclosed herein using the common methods known in the art were conducted.

Salmonella = experiment: In vitro antibacterial activity test (MIC); format: cell-based; conditions: read-out: minimum inhibitory concentration (MIC)
Experimental: as §1

Staphylococcus aureus = experiment: In vitro antibacterial activity test (MIC); format: cell-based; conditions: read-out: minimum inhibitory concentration (MIC)
Experimental: as §1

Enterococcus = experiment: In vitro antibacterial activity test (MIC); format: cell-based; conditions: read-out: minimum inhibitory concentration (MIC)
Experimental: as §1

[2] = system: Streptococcus hemolyticus group A; experiment: In vitro antibacterial activity test (MIC); format: cell-based; conditions: Streptococcus pyogenes, read-out: minimum inhibitory concentration (MIC)
Experimental: as §1

Streptococcus pyogenes = experiment: In vitro antibacterial activity test (MIC); format: cell-based; conditions: read-out: minimum inhibitory concentration (MIC)
Experimental: as §1

Hemophilus influenzae = experiment: In vitro antibacterial activity test (MIC); format: cell-based; conditions: Haemophilus influenzae, read-out: minimum inhibitory concentration (MIC)
Experimental: as §1

Viridans streptococcus = experiment: In vitro antibacterial activity test (MIC); format: cell-based; conditions: read-out: minimum inhibitory concentration (MIC)
Experimental: as §1

[3] = Pharmacokinetic comparative experiment, intravenous injection, plasma by HPLC; format: in vivo, Beagle dogs
Experimental: The resulting BYS02 obtained from the Examples 6 and 7 as shown above was used to compare with cefathiamidine in the following pharmacokinetic study.
Commercially available cefathiamidine was used as the comparison in the pharmacokinetic study. Using the cross-over controlled trial experimental design, 6 healthy Beagle dogs were divided into two groups: one group of dogs were intravenously injected with 50 mg/kg.bw of the BYS02 and the other group of dogs were injected with 50 mg/kg.bw of cefathiamidine. Blood samples were taken every 12 hours. The drug plasma concentrations were analyzed using HPLC. The drug plasma concentration over the time data were analyzed using MCPKP program.
Six Beagle dogs were provided by Guangzhou Pharmaceutical Research Institute. They were healthy, male, one-year old, and each weighed 8.0±0.1 kg. The dogs were kept in single-dog cages and fed with water and food according to the standards for laboratory animals. One week before the tests, the dogs were examined for hearts, livers, and kidneys, and they were found normal.
BYS02 was prepared according to Example 6 with a purity of 90%. Cefathiamidine was purchased from the market. Heparin sodium, sodium hydrogen phosphate, citric acid, methanol, ethyl acetate and other agents used were analytical-pure. Propionitrile used was chromatographic-pure. Water is pure. High Performance Liquid Chromatography (HPLC) and high-speed refrigerated centrifuges were used in the tests.
Sixteen hours before and 4 hours after the administration, the Beagle dogs were not allowed to eat food but allowed to drink water freely. After intravenously injection with 50 mg/kg.bw of the BYS02 and cefathiamidine, respectively, the two groups of dogs were taken 3 ml of blood samples intravenously at 0, 0.083, 0.17, 0.25, 0.5, 1, 1.5, 2, 3, 4, 6, 9, and 12 hours. The dogs were administrated every other week and blood samples were collected according to the above schedule. The blood samples were added to centrifuge tubes, mixed with heparin, centrifuged at 4000 rpm for 10 minutes, and the serum samples were stored in a refrigerator at −20° C. until they were used.
Hypersil ODS2, C18 column (4.6 mm×150 mm, 5 μm); mobile phase: propionitrile/phosphate buffer (11/89 volume ratio); wavelength: 254 nm; flow rate: 1.0 ml/min; room temperature; sample size: 20 μl.
Preparation of phosphate buffer (pH 7.0): 2.76 g of sodium hydrogen phosphate, 1.29 g of citric acid and 1000 ml of water were mixed well and filtered.
Drug plasma concentration over the time data were analyzed using MCPKP program to calculate the pharmacokinetic parameters. The average values and standard deviations were also calculated.

[4] = Water solubility of the product; format: physicochemical; conditions: product of Example 6
Experimental: 200 ml of methylene dichloride and 2.0 g of the intermediate prepared according to Example 1 were added to a three-neck flask. 16 ml of triethylamine was added dropwise to the flask to dissolve the solid. 0.6 g of N,N′-diisopropylthiourea was added to the reaction mixture. The mixture was refluxed until the reaction was complete. A solid product appeared in the reaction mixture. The temperature was lowered and the crystallization was carried out for an hour. The solid was filtered and dried under vacuum to yield 1.5 g of the product. It has a pH value of 5.4 and cloudiness of lower than 1 degree (1 g/10 ml water). The product is water soluble.

Streptococcus pneumoniae = experiment: In vitro antibacterial activity test (MIC); format: cell-based; conditions: read-out: minimum inhibitory concentration (MIC)
Experimental: as §1

Pseudomonas aeruginosa = experiment: In vitro antibacterial activity test (MIC); format: cell-based; conditions: read-out: minimum inhibitory concentration (MIC)
Experimental: as §1

SPF grade mice = experiment: Acute toxicity test by intravenous injection; format: in vivo
Text: A commonly-used acute toxicity test method was used with SPF grade mice by intravenous injection.

[5] = Beagle dogs, intravenous injection, 50 mg/kg.bw
[6] = single intravenous administration

## CO/N=C(\C(=O)N[C@@H]1C(=O)N2C(C(=O)O)=C(CSc3nc(=O)c(=O)[nH]n3C)CS[C@H]12)c1csc(N)n1 [Ceftriaxone, ceftriaxone, reference compound]
[1]
  MIC: 2 to 8 µg/mL (≈ 3.61 to 14.4 µM)
Salmonella
  MIC: 0.125 µg/mL (≈ 0.225 µM)
Staphylococcus aureus
  MIC: 32 to 64 µg/mL (≈ 57.7 to 115 µM)
Enterococcus
  MIC: > 512 µg/mL

## Cc1nc(SCC2=C(C(=O)O)N3C(=O)C(NC(=O)CSC(=NC(C)C)NC(C)C)C3SC2)sc1CC(=O)O (stereo not drawn) [Compound V, 3-[[[5-(carboxymethyl)-4-methyl-2-thiazolyl]thio]methyl]-7-[[[[[(1-methylethyl)amino][(1-methylethyl)imino]methyl]thio]acetyl]amino]-8-oxo-5-thia-1-aza-bicyclo[4.2.0]oct-2-ene-2-carboxylic acid]
[2]
  MIC: 0.125 to 1 µg/mL (≈ 0.208 to 1.66 µM)
Streptococcus pyogenes
  MIC: 0.0312 to 0.5 µg/mL (≈ 0.0518 to 0.831 µM)
Hemophilus influenzae
  MIC: > 256 µg/mL
Salmonella
  MIC: 2 to 8 µg/mL (≈ 3.32 to 13.3 µM)
Viridans streptococcus
  MIC: 0.125 to 4 µg/mL (≈ 0.208 to 6.65 µM)
Staphylococcus aureus
  MIC: 0.25 to 2 µg/mL (≈ 0.415 to 3.32 µM)
Enterococcus
  MIC: 2 to 8 µg/mL (≈ 3.32 to 13.3 µM)

## CC(=O)OCC1=C(C(=O)O)N2C(=O)[C@@H](NC(=O)CSC(=NC(C)C)NC(C)C)[C@H]2SC1 [cefathiamidine, reference compound]
[3]; dog, in vivo, iv, 50 mg/kg
  AUC: 42.25 ± 1.02 mg·h/L
  ClB: 1.18 ± 0.03 L/kg/h
  Co: 90.84 ± 29.71 µg/mL
  V1: 0.59 ± 0.20 L/kg
  VB: 1.11 ± 0.07 L/kg
  t1/2α: 12.6 ± 8.4 min
  t1/2β: 0.65 ± 0.03 h

## CC(C)N=C(NC(C)C)SCC(=O)NC1C(=O)N2C(C(=O)O)=C(CSc3nc(=O)c(=O)[nH]n3C)CSC12 (stereo not drawn) [Compound II, 3-((1,2,5,6-tetrahydro-2-methyl-5,6-dioxo-1,2,4-triazine-3-ylthio)methyl)-7-[[[[[(1-methylethyl)amino][(1-methylethyl)imino]methyl]thio]acetyl]amino]-8-oxo-5-thia-1-aza-bicyclo[4.2.0]oct-2-ene-2-carboxylic acid]
[3]; [5]
  ClB: 0.47 ± 0.09 L/kg/h
  Co: 208.97 ± 61.16 µg/mL
  V1: 0.25 ± 0.07 L/kg
  VB: 1.61 ± 0.30 L/kg
  t1/2α: 37.8 ± 7.2 min
  t1/2β: 2.19 ± 0.04 h
[3]; male, dog, in vivo, Beagle dogs, intravenous injection, 50 mg/kg.bw, read-out: AUC
  AUC: 108 ± 18.2 mg·h/L
[4]
  solubility in water: water soluble
Streptococcus pneumoniae
  MIC: 0.125 to 0.5 µg/mL (≈ 0.219 to 0.875 µM)
Hemophilus influenzae
  MIC: 8 to 16 µg/mL (≈ 14 to 28 µM)
[1]
  MIC: 0.0312 to 2 µg/mL (≈ 0.0546 to 3.5 µM)
Staphylococcus aureus
  MIC: 1 to 4 µg/mL (≈ 1.75 to 7 µM)
Pseudomonas aeruginosa
  MIC: > 512 µg/mL
Enterococcus
  MIC: 4 to 8 µg/mL (≈ 7 to 14 µM)
SPF grade mice; [6]
  LD50: 672 mg/kg.bw
  LD50 95% confidence limit: 650-700 mg/kg.bw
SPF grade mice; single intravenous injection of 465 mg/kg.bw
  mortality: No death
SPF grade mice; single intravenous injection of 930 mg/kg.bw or more
  mortality: the animals died after 10 seconds of struggling
